These results are taken from paper PMC11711184, “Structural basis of THC analog activity at the Cannabinoid 1 receptor” (Nature Communications, 2025).

Each structure is given as a SMILES string.

The target of the assay is T1, CB1 (CB1-Nluc) (Homo sapiens, UniProt P21554).
T1 construct: gene CNR1; CB1 with C-terminal NanoLuc (CB1-Nluc), stably co-expressed in HEK293-TR cells with NES-venus-mini-Gsi (Gs-based chimera with Gi1 C-terminal residues) as BRET acceptor
T1 sequence (P21554 whole entry): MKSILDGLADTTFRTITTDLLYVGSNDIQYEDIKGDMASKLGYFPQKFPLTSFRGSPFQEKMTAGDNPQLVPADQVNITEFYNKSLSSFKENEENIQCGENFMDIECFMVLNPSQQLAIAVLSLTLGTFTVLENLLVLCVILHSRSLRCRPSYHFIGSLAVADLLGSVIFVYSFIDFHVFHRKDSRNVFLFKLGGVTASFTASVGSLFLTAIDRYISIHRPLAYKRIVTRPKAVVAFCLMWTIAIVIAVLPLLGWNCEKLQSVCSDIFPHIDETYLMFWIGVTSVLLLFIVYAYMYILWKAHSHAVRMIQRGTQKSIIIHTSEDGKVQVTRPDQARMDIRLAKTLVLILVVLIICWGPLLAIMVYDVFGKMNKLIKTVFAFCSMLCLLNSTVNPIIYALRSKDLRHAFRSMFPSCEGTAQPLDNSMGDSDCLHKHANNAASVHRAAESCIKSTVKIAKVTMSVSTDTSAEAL
Put plainly: NanoBRET venus-mini-Gsi recruitment. The format is cell-based. (In general: BRET reads energy transfer from a luciferase to a nearby fluorophore.)
In general, EC50 refers to the concentration giving half of the maximal effect. The low end stands for an effect from little substance, the high end for a need for much substance. Take `CCCC(C)(C)c1ccc2c(c1)OC(C)(C)[C@@H]1CC=C(C)C[C@@H]21` [JWH133, (6aR,10aR)-3-(1,1-Dimethylbutyl)-6a,7,10,10a-tetrahydro-6,6,9-trimethyl-6H-dibenzo[b,d]pyran]: the EC50 was 1150 nM. In the case of `CCCCCCC(C)(C)c1cc(OC)c2c(c1)OC(C)(C)[C@@H]1CC=C(C)C[C@@H]21` [L759633] it was 417 nM; in that of `CCCCCCC(C)(C)c1cc(O)c2c(c1)OC(C)(C)[C@@H]1CC[C@@H](CO)C[C@@H]21` [HU243], 2.04 nM. To `CCCc1cc(O)c2c(c1)OC(C)(C)[C@@H]1CCC(C)=C[C@@H]21` [THCv] belongs 200 nM.

On to `CC1=CC[C@@H]2[C@@H](C1)c1c(O)cc(C(C)(C)CCCCCCBr)cc1OC2(C)C` [AM11542, (6aR,10aR)-3-(8-bromo-2-methyloctan-2-yl)-6,6,9-trimethyl-6a,7,10,10a-tetrahydro-6H-benzo[c]chromen-1-ol], for which it took 3.39 nM to reach a half-maximal effect (EC50). To `CCCCCCC(C)(C)c1cc(O)c2c(c1)OC(C)(C)C1CCC(=O)CC21` (centres unmarked) [Nabilone] belongs 13.8 nM; to `CC(C)(CCCCCCN=C=S)c1cc(O)c2c(c1)OC(C)(C)[C@@H]1CC[C@@H](CO)C[C@@H]21` [AM841, (6aR,9 R,10aR)-9-(hydroxymethyl)-3-(8-isothiocyanato-2-methyloctan-2-yl)-6,6-dimethyl-6a,7,8,9,10,10a-hexahydro-6H-benzo[c]chromen-1-ol], 3.39 nM. To `CCCCCCC(C)(C)c1cc(O)c2c(c1)OC(C)(C)[C@@H]1CC=C(CO)C[C@@H]21` [HU210, (6aR)-trans-3-(1,1-Dimethylheptyl)-6a,7,10,10a-tetrahydro-1-hydroxy-6,6-dimethyl-6H-dibenzo[b,d]pyran-9-methanol] belongs 2.4 nM.
